One data set has as its system C2BBE1 cells. The following applies: reference values; cited from earlier work.
The conditions of data set [1]: reference values; cited from earlier work.
Another data set addresses P-gp (Homo sapiens, UniProt P08183). Put plainly: Calcein-AM assay. The following applies: for RFU/μg of protein: 30 minutes. The protocol:
Calcein-AM assay. To determine activity of the P-gp protein, calcein-AM assays were conducted.
To determine the P-gp activity, cells were plated in 96-well tissue culture plates and cultured for 48. After 48 hours, cell culture media was removed and the cells were washed with phosphate buffered saline solution (PBS). After washing, cells were incubated with 1 μM calcein-AM for 30 minutes. […] After incubation with calcein-AM, the cells were rinsed with fresh control buffer and fluorescence was measured using a Fluo-star fluorescence plate reader (BMG Lab Technologies, N.C.) with excitation and emission filters set at wavelengths of 485 nm and 538 nm, respectively.
Calcein-AM efflux is not mediated by BCRP. Therefore, any increase in calcein-AM uptake by the cells can be attributed to P-gp inhibition. The cells were plated in 96-well tissue culture plates and cultured for 48 hours. After 48 hours, cell culture media was removed and the cells were washed with phosphate buffered saline solution (PBS). After washing, cells were incubated with 1 μM calcein-AM for 30 minutes. […] After incubation with calcein-AM, the cells were rinsed with fresh control buffer and fluorescence was measured using a Fluo-star fluorescence plate reader (BMG Lab Technologies, N.C.) with excitation and emission filters set at wavelengths of 485 nm and 538 nm, respectively. The assay was carried out after each clone had been passaged 9 times.

The test system of another data set is MRP2 mRNA. Put plainly: RT-PCR of MRP2 mRNA expression in transduced C2BBe1 cells. The data set is classed as cell-based, human. Conditions: for Percent decrease in ratio compared to control: MRP2 mRNA vs vector control; for Ratio of MRP2 band intensity to β-actin band intensity: RT-PCR, C2BBe1 cells, passages 2 to 5. The procedure:
RT-PCR. Total RNA was extracted from cells according to the following protocol. Cells were harvested from culture by centrifugation, resuspended in 1 ml of TRIzol® reagent (Invitrogen, Carlsbad, Calif.), and incubated at room temperature for 5 minutes with gentle shaking. The suspension was transferred to a 1.5 ml centrifuge tube, to which 200 μl of Chloroform was added, followed by an additional 5 minute incubation period with shaking. After incubation, the suspension was centrifuged at 12,000×g for 12 minutes at 4° C. The supernatant was transferred to a fresh, sterile 1.5 ml centrifuge tube, and supplemented with 0.5 ml of 2-propanaol per 1 ml of TRIzol reagent, and incubated for 10 minutes at room temperature. The mixture was then centrifuged at 12,000×g for an additional 12 minutes at 4° C. After centrifugation, the supernatant was removed and the pellet was washed with 75% ethanol. The sample was re-centrifuged at 7500×g for 5 minutes at 4° C., followed by the removal of the supernatant. The pellet was allowed to air dry at room temperature. The pellet was resuspended in pre-warmed (55° C.) nuclease-free water, and incubated at 55° C. for 10 minutes. RNA yield and purity were quantified by absorbance at 260 nm and 280 nm.
RT-PCR mixtures were set up as 50 μl samples containing buffer, 1-2 μg of RNA, 10 μM of Forward primer, 10 μM of Reverse primer, Taq polymerase, and water. Primers to amplify human P-gylcoprotein were as follows: P-gp Forward 5′-[…]-3′ (SEQ ID NO: 9); and, P-gp Reverse 5′-[…]-3′ (SEQ ID NO: 10). Primers to amplify human MRP2 were as follows: MRP2 Forward 5′-[…]-3′ (SEQ ID NO: 11); and, MRP2 Reverse 5′-[…]-3′ (SEQ ID NO: 12). Primes to amplify human BCRP were as follows: BCRP Forward 5′-[…] 3′ (SEQ ID NO: 13); and, BCRP Reverse 5′-[…] 3′ (SEQ ID NO: 14). Human β-actin was amplified in parallel as a positive control using the following primers: β-actin Forward 5′-[…]-3′ (SEQ ID NO: 15); and, β-actin Reverse 5′-[…]-3′ (SEQ ID NO: 16).
The PCR cycles proceeded in a programmable thermocycler with the following parameters: cDNA synthesis, 1 cycle, 55° C. for 30 minutes; denaturation, 1 cycle, 94° C. for 2 minutes; PCR amplification, 40 cycles of 94° C. for 15 seconds, 62° C. for 30 seconds, 72° C. for 1 minute; and, final extension, 1 cycle, 72° C. for 5 minutes. Amplification was confirmed by electrophoresis in 2% agarose gels.
For this example, gene expression of MRP2 in C2BBe1 cells was determined by observing both the MRP2 mRNA content as well as the protein content of the cells following viral transduction. To examine mRNA content, total cellular RNA was harvested and amplified by RT-PCR using primers specific to the MRP2 gene (SEQ ID NO: 11 and 12). The RT-PCR products were then analyzed after separation by electrophoresis on a 2% agarose gel.
Vector control (VC) cells were prepared from cells transducted with lentiviruses encoding a non-interfering nucleic acid sequence (SEQ ID NO 27), as described in Example 7. Methods were described in Example 1. […]

Chain of P-gp (P08183 whole entry): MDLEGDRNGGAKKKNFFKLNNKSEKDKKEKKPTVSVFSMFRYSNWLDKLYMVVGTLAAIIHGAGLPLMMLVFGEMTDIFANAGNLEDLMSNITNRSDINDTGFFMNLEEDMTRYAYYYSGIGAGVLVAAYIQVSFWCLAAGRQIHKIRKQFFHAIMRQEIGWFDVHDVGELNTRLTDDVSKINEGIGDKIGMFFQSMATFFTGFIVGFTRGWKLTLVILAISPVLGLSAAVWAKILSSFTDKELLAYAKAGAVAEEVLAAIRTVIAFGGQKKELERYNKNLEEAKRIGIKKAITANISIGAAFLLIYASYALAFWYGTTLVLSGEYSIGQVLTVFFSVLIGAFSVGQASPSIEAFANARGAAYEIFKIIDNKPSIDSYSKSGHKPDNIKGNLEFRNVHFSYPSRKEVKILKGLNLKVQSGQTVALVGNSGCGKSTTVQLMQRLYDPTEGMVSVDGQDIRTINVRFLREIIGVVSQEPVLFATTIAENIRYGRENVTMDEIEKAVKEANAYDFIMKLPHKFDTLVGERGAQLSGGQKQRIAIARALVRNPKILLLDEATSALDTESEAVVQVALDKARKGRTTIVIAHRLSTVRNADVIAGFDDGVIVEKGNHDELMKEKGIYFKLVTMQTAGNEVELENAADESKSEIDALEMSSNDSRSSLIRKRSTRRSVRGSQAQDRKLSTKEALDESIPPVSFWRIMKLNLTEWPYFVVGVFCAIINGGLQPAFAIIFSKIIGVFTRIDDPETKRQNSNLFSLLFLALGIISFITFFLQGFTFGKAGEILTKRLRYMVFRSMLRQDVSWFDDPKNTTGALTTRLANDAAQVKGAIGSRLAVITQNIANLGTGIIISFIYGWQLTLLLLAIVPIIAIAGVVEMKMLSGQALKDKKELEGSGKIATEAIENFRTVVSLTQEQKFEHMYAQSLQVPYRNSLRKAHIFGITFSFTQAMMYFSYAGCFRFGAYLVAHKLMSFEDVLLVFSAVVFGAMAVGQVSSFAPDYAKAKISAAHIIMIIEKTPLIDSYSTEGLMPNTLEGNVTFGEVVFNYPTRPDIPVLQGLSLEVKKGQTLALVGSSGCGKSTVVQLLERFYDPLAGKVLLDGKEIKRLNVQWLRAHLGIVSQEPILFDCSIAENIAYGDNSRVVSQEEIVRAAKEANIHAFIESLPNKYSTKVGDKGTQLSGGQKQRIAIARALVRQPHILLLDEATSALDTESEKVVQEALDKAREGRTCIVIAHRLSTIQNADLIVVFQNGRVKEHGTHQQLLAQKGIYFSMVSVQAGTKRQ

As for 1-Deamino-8-D-arginine, the “Papp in C2BBE1 cells” value with C2BBE1 cells was 0.13 10^−6 cm/s.
As for `CC(=O)Oc1ccccc1C(=O)O` [Acetylsalicylic acid], the “% Absorption in human” value in data set [1] is 100%. Further, the “Papp in C2BBE1 cells” value with C2BBE1 cells is reported as 2.4 10^−6 cm/s.
Regarding `C=CCc1ccccc1OCC(O)CNC(C)C` (stereo not shown) [Alprenolol], the “% Absorption in human” value in data set [1] is on record as 93%. In the data set on C2BBE1 cells, the “Papp in C2BBE1 cells” value is on record as 40.5 10^−6 cm/s.
Regarding `NC(=O)CC[C@@H]1NC(=O)[C@H](Cc2ccccc2)NC(=O)[C@H](Cc2ccc(O)cc2)NC(=O)[C@@H](N)CSSC[C@@H](C(=O)N2CCC[C@H]2C(=O)N[C@@H](CCCN=C(N)N)C(=O)NCC(N)=O)NC(=O)[C@H](CC(N)=O)NC1=O` [Arginine-vasopressin], in data set [1], the “% Absorption in human” value is 0%. Besides, the “Papp in C2BBE1 cells” value with C2BBE1 cells is recorded as 0.14 10^−6 cm/s.
On to `C[C@]12C[C@H](O)[C@H]3[C@@H](CCC4=CC(=O)CC[C@@]43C)[C@@H]1CC[C@@H]2C(=O)CO` [Corticosterone], for which the “% Absorption in human” value in data set [1] is 100%.
`C[C@@H]1C[C@H]2[C@@H]3CCC4=CC(=O)C=C[C@]4(C)[C@@]3(F)[C@@H](O)C[C@]2(C)[C@@]1(O)C(=O)CO` [Dexamethasone]: in data set [1], the “% Absorption in human” value is reported as 100%.
As to `CCOC(=O)C1=C(C)NC(C)=C(C(=O)OC)C1c1cccc(Cl)c1Cl` (stereo not shown) [Felodipine], in the data set on C2BBE1 cells, the “Papp in C2BBE1 cells” value is 22.7 10^−6 cm/s.
With `OC[C@@H](O)[C@@H](O)[C@H](O)[C@H](O)CO` [Mannitol], the “% Absorption in human” value in data set [1] is reported as 16%. In addition, the “Papp in C2BBE1 cells” value with C2BBE1 cells is recorded as 0.18 10^−6 cm/s.
Regarding `COCCc1ccc(OCC(O)CNC(C)C)cc1` (stereo not shown) [Metoptolol], in the data set on C2BBE1 cells, the “Papp in C2BBE1 cells” value is 27 10^−6 cm/s.
For `O=C(O)c1cc(/N=N/c2ccc(O)c(C(=O)O)c2)ccc1O` [Olsalazine], the “% Absorption in human” value in data set [1] is given as 2%. The “Papp in C2BBE1 cells” value with C2BBE1 cells is reported as 0.11 10^−6 cm/s.
Regarding `CC(=O)Nc1ccc(OCC(O)CNC(C)C)cc1` (stereo not shown) [Practolol], in the data set with C2BBE1 cells, the “Papp in C2BBE1 cells” value is listed as 0.9 10^−6 cm/s.
For `CC(C)NCC(O)COc1cccc2ccccc12` (stereo not shown) [Propranolol], in the data set with C2BBE1 cells, the “Papp in C2BBE1 cells” value is listed as 41.9 10^−6 cm/s.
Take `CC(C)(C)NCC(O)c1cc(O)cc(O)c1` (stereo not shown) [Terbutaline]: the “% Absorption in human” value in data set [1] is 73%. Also, the “Papp in C2BBE1 cells” value in the data set on C2BBE1 cells was 0.38 10^−6 cm/s.
Regarding `C[C@]12CC[C@H]3[C@@H](CCC4=CC(=O)CC[C@@]43C)[C@@H]1CC[C@@H]2O` [Testosterone], in data set [1], the “% Absorption in human” value was 100%.
On to `CC(=O)CC(c1ccccc1)c1c(O)c2ccccc2oc1=O` (stereo not shown) [Warfarin], for which the “Papp in C2BBE1 cells” value in the data set on C2BBE1 cells was 38.3 10^−6 cm/s.
For the compound `CC(=O)OCOC(=O)CN(CC(=O)OCOC(C)=O)Cc1cc2c(cc1OC(C)=O)Oc1cc(OC(C)=O)c(CN(CC(=O)OCOC(C)=O)CC(=O)OCOC(C)=O)cc1C21OC(=O)c2ccccc21` [calcein-AM], the “Normalized Mean Fluorescence” value on P-gp (Vector Control cells) is listed as 23.92; on P-gp (shRNA/BCRP clone #801 cells, passage 20, normalized for total protein) it was 5.08. The “Normalized Mean Fluorescence in the Presence of CSA” value is on record as 62.86 at P-gp (Vector Control cells) and 72.31 on P-gp (shRNA/BCRP clone #801 cells, passage 20). In addition, the “% decrease of Calcein-AM compared to vector control” value was 0.33% on P-gp (shRNA/BCRP clone cell #798); 31.18% at P-gp (shRNA/BCRP clone cell #799); 58.07% at P-gp (shRNA/BCRP clone cell #800); 89.37% on P-gp (shRNA/BCRP clone cell #801); 33.42% at P-gp (shRNA/BCRP clone cell #802). Besides, the RFU/μg of protein at P-gp (shRNA/BCRP clone cell #798, 1 μM calcein-AM, passaged 9 times) is reported as 10.13 RFU/μg of protein; at P-gp (shRNA/BCRP clone cell #799, 1 μM calcein-AM, passaged 9 times), 6.99 RFU/μg of protein; on P-gp (shRNA/BCRP clone cell #800, 1 μM calcein-AM, passaged 9 times) it was 4.26 RFU/μg of protein; at P-gp (shRNA/BCRP clone cell #801, 1 μM calcein-AM, passaged 9 times) it was 1.08 RFU/μg of protein; on P-gp (shRNA/BCRP clone cell #802, 1 μM calcein-AM, passaged 9 times), 6.76 RFU/μg of protein; at P-gp (vector control cells, 1 μM calcein-AM) it was 10.16 RFU/μg of protein.
As for “shRNA/MRP2 #3: interfering RNA to MRP2, SEQ ID NO: 17, lentivirally transduced into C2BBe1 cells; clone #3 (CCGGCGTGTATAAATCCAGGACCAACTCGAGTTGGTCCTGGATTTATACACGTTTTTG; listed as Homo Sapiens)”, in the data set on MRP2 mRNA, the “Percent decrease in ratio compared to control” value is 15.12% and the “Ratio of MRP2 band intensity to β-actin band intensity” value was 0.57.
The corresponding values for “shRNA/MRP2 #4: interfering RNA to MRP2, SEQ ID NO: 18, lentivirally transduced into C2BBe1 cells; clone #4 (CCGGCCTGGTGGATAGCAACAATATCTCGAGATATTGTTGCTATCCACCAGGTTTTTG; listed as Homo Sapiens)” are 15.31% and 0.57.
For “shRNA/MRP2 #5: interfering RNA to MRP2, SEQ ID NO: 19, lentivirally transduced into C2BBe1 cells; clone #5 (CCGGGCATCTGAAGTCCCTGAGAAACTCGAGTTTCTCAGGGACTTCAGATGCTTTTTG; listed as Homo Sapiens)” the same measures were 6.04% and 0.63.
For “shRNA/MRP2 #6: interfering RNA to MRP2, SEQ ID NO: 20, lentivirally transduced into C2BBe1 cells; clone #6 (CCGGGCCGGTGGTCAGATTATCATTCTCGAGAATGATAATCTGACCACCGGCTTTTTG; listed as Homo Sapiens)” the same measures were −7.59% and 0.72.
For “shRNA/MRP2 #7: interfering RNA to MRP2, SEQ ID NO: 21, lentivirally transduced into C2BBe1 cells; clone #7 (CCGGCCATAGCTTCATTCCTGAGTACTCGAGTACTCAGGAATGAAGCTATGGTTTTTG; listed as Homo Sapiens)”, in the data set on MRP2 mRNA, the “Percent decrease in ratio compared to control” value turned out to be 19.53% and the “Ratio of MRP2 band intensity to β-actin band intensity” value is on record as 0.54.

These data come from patent publication US8110398B2, “Stable cell lines and methods for evaluating gastrointestinal absorption of chemicals” (Absorption Systems Group, LLC, priority 2006, dated 2012).
